Data from publication PMC12542817, “LaIT6: A Novel Insect-Selective K^+-Channel Toxin from Liocheles australasiae Scorpion Venom” (Molecules, 2025).
Where two headings read alike, the source gives them in different places. Where a SMILES comes first, the peptide text is derived from it. Where no end group is shown, it is not given here.

Key:
[1] = biological target: T1, Shaker-IR K+ channel (Drosophila melanogaster, UniProt P08510, DEL6-46); test: Two-electrode voltage clamp on Shaker-IR K+ channel expressed in Xenopus oocytes; format: biochemical; conditions: for IC50: TEVC in Xenopus laevis oocytes, ND96 pH 7.4, 18–22 °C, n ≥ 3 per concentration, read-out: IC50, inhibition of Shaker-IR K+ channel
T1 construct: expressed in transfected cells; host or cells: Xenopus laevis oocytes injected with in-vitro-transcribed cRNA
T1 sequence (P08510 with tags, fused parts or gaps DEL6-46): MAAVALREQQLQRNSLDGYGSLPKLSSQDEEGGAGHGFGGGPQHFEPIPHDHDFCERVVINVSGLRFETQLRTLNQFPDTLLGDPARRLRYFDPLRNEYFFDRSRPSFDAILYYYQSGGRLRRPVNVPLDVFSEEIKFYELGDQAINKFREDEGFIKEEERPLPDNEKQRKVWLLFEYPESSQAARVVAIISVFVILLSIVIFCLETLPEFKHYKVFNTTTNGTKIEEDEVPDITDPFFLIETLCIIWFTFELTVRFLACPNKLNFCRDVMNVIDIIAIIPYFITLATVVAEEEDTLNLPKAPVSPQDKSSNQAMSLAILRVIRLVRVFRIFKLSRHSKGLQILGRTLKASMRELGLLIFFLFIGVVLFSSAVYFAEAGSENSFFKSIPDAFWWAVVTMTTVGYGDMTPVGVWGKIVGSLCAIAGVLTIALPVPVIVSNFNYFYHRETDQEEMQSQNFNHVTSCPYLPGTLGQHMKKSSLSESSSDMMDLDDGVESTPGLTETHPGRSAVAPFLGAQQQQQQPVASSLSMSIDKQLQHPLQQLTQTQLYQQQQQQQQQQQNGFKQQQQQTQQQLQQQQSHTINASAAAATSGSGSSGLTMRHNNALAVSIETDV
Method: Electrophysiological experiments were carried out in Xenopus laevis oocytes. Linearized plasmids encoding Shaker-IR, hKv1.1, and hKv1.2 channels were transcribed using the T7 mMESSAGE mMACHINE transcription kit (Ambion, Austin, TX, USA). Mature female animals were purchased from Nasco (Fort Atkinson, WI, USA) and were housed in the Aquatic Facility (KU Leuven) in compliance with the regulations of the European Union (EU) concerning the welfare of laboratory animals as declared in Directive 2010/63/EU. The use of X. laevis oocytes was approved by the Animal Ethics Committee of the KU Leuven with license number P186/2019. Stage V–VI oocytes were collected from anesthetized female X. laevis frogs as previously described, with the frogs anesthetized by placement in 0.1% tricaine solution (amino benzoic acid ethyl ester; Merck, Rahway, NJ, USA). Oocyte microinjection was performed using a microinjector (World Precision Instruments, Sarasota, FL, USA), with a programmed cRNA injection volume of 4–10 nL, depending on the channel subtype. The oocytes were incubated in an MBS solution (88 mM NaCl, 1 mM KCl, 2.5 mM NaHCO3, 1 mM MgSO4, and 5 mM HEPES, pH 7.8) supplemented with 50 mg/L gentamicin sulfate and 90 mg/L theophylline. Electrophysiological measurements were performed at room temperature (18–22 °C) using the two-electrode voltage clamp (TEVC) technique. Data were obtained using a GeneClamp 500 amplifier (Axon Instruments, Burlingame, CA, USA), and Clampex9 software (Axon Instruments, Union City, CA, USA) was used for data acquisition and storage. Glass micropipettes were produced using glass capillaries (borosilicate WPI 1B120-6) and drawn in a WPI (World Precision Instruments, Sarasota, FL, USA) manual stretcher. The bath and perfusion solutions were ND96 (96 mM NaCl, 2 mM KCl, 1.8 mM CaCl2, 2 mM MgCl2, and 5 mM HEPES, pH 7.4). Whole-cell currents of oocytes were recorded 1 to 3 days after injection. Current and voltage electrodes were filled with 3 M KCl, and their resistance was adjusted from 0.5 to 1.5 MΩ. […]

[2] = test system: mice (male Slc:ICR strain); test: Mammalian toxicity, intracerebroventricular injection into mice; format: in vivo, mouse; conditions: injection dose 50 nmol/kg, in PBS, male Slc:ICR mice 20 g, three animals, monitored for up to 24 h
Method: (§1) The insecticidal activity was evaluated as previously described. In this study, we used crickets (Acheta domesticus, 45–55 mg), houseflies (Musca domestica, 13–17 mg), silkworms (Bombyx mori, 225–275 mg), and cockroaches (Periplaneta americana, 75–225 mg). Each peptide in distilled water was injected into the abdominal region of insects. As a negative control, distilled water was used. Ten insects were used for each dose, except for doses of 3.1 and 6.3 nmol in LaIT6(R24A), for which 15 and 20 insects were used, respectively. The number of dead insects was counted 48 h after injection (24 h after injection in the case of houseflies). […] Toxicity to mammals was evaluated as previously described. The sample solution in a PBS buffer was injected intracerebroventricularly into mice (male Slc:ICR strain, 20 g) after anesthetizing with isoflurane. As a negative control, PBS buffer was used. Three animals were used for each measurement, and toxic symptoms were monitored for up to 24 h. The experimental protocol was approved by the Ethical Committee for the Welfare of Animals at Kyoto University.

[3] = test system: crickets (Acheta domesticus); test: Insecticidal activity against crickets (injection, LD50); format: in vivo; conditions: injection into abdominal region in distilled water; Acheta domesticus 45–55 mg; ten insects per dose; dead insects counted 48 h after injection; brackets = 95% confidence interval
Method: as §1

CC[C@H](C)[C@@H]1NC(=O)[C@@H]2CSSC[C@H](NC(=O)[C@@H]3CCCN3C(=O)[C@@H](NC(=O)[C@H](CC(N)=O)NC(=O)[C@@H]3CCCN3C(=O)[C@@H]3CCCN3C(=O)[C@@H](NC(=O)[C@@H](N)CO)C(C)C)[C@@H](C)CC)C(=O)N[C@@H](CCC(N)=O)C(=O)N[C@@H](C(C)C)C(=O)N[C@@H]([C@@H](C)O)C(=O)N[C@@H](CC(N)=O)C(=O)N[C@@H](CCC(N)=O)C(=O)N[C@H]3CSSC[C@H](NC(=O)[C@H](CCCNC(=N)N)NC(=O)CNC(=O)[C@H](CC(N)=O)NC1=O)C(=O)N[C@@H](CCCCN)C(=O)N[C@H](C(=O)N[C@@H](Cc1ccc(O)cc1)C(N)=O)CSSC[C@H](NC(=O)[C@@H]1CCCN1C(=O)[C@H](CCCCN)NC(=O)[C@@H]1CCCN1C3=O)C(=O)N[C@@H](CCCNC(=N)N)C(=O)N[C@@H](CCC(=O)O)C(=O)N[C@@H](C)C(=O)N[C@@H]([C@@H](C)O)C(=O)NCC(=O)N[C@@H](CCCNC(=N)N)C(=O)N1CCC[C@H]1C(=O)N[C@@H](CC(N)=O)C(=O)N[C@@H](CO)C(=O)N[C@@H](C)C(=O)N2 [LaIT6(K28A)] (HELM PEPTIDE1{S.V.P.P.N.I.P.C.Q.V.T.N.Q.C.P.K.P.C.R.E.A.T.G.R.P.N.S.A.C.I.N.G.R.C.K.C.Y.[am]}$PEPTIDE1,PEPTIDE1,8:R3-29:R3|PEPTIDE1,PEPTIDE1,14:R3-34:R3|PEPTIDE1,PEPTIDE1,18:R3-36:R3$$$V2.0)
IC50 ([1]; 95% CI 0.81–6.7 µM): 2.3 µM | IC50 on Shaker-IR relative to wild-type LaIT6 (times higher) ([1]; ratio of IC50 LaIT6(K28A) to IC50 LaIT6): approximately 300 times

CC[C@H](C)[C@@H]1NC(=O)[C@@H]2CSSC[C@H](NC(=O)[C@@H]3CCCN3C(=O)[C@@H](NC(=O)[C@H](CC(N)=O)NC(=O)[C@@H]3CCCN3C(=O)[C@@H]3CCCN3C(=O)[C@@H](NC(=O)[C@@H](N)CO)C(C)C)[C@@H](C)CC)C(=O)N[C@@H](CCC(N)=O)C(=O)N[C@@H](C(C)C)C(=O)N[C@@H]([C@@H](C)O)C(=O)N[C@@H](CC(N)=O)C(=O)N[C@@H](CCC(N)=O)C(=O)N[C@H]3CSSC[C@H](NC(=O)[C@H](CCCNC(=N)N)NC(=O)CNC(=O)[C@H](CC(N)=O)NC1=O)C(=O)N[C@@H](CCCCN)C(=O)N[C@H](C(=O)N[C@@H](Cc1ccc(O)cc1)C(N)=O)CSSC[C@H](NC(=O)[C@@H]1CCCN1C(=O)[C@H](CCCCN)NC(=O)[C@@H]1CCCN1C3=O)C(=O)N[C@@H](CCCNC(=N)N)C(=O)N[C@@H](CCC(=O)O)C(=O)N[C@@H](C)C(=O)N[C@@H]([C@@H](C)O)C(=O)NCC(=O)N[C@@H](CCCNC(=N)N)C(=O)N1CCC[C@H]1C(=O)N[C@@H](CC(N)=O)C(=O)N[C@@H](CO)C(=O)N[C@@H](CCCCN)C(=O)N2 [LaIT6] (HELM PEPTIDE1{S.V.P.P.N.I.P.C.Q.V.T.N.Q.C.P.K.P.C.R.E.A.T.G.R.P.N.S.K.C.I.N.G.R.C.K.C.Y.[am]}$PEPTIDE1,PEPTIDE1,8:R3-29:R3|PEPTIDE1,PEPTIDE1,14:R3-34:R3|PEPTIDE1,PEPTIDE1,18:R3-36:R3$$$V2.0)
IC50 ([1]; 95% CI 4.8–14 nM): 0.0082 µM | Mammalian toxicity (toxic symptoms) in mice [2]: did not observe any toxic symptoms

SVPPNIPCQVTNQCPKPCREATGRPNSKCINGRCKCY-OH (disulfide (positions not given here)) [LaIT6(COOH), LaIT6 analog, C-terminal amide group converted to a carboxyl group]
LD50, insecticidal activity against crickets [3]: 19 (14–25) nmol/g
